Source: patent US12473299B2, “Cross-linked nucleoside and nucleotide using same” (Osaka University, priority 2020, dated 2025)
“Also recorded” adds a separate entry of the source. [BANA] = cross-linked (bridged) nucleoside of the invention; l = locked nucleic acid (LNA); d = 2'-deoxy (DNA)

Test system: mice (C57BL/6J, male)
Experiment: Toxicity reducing effect: serum AST/ALT and death in mice
Type: in vivo
Conditions: 20 mg/kg intraperitoneally
Experimental: The test oligonucleotides (20 mg/kg) shown in Table 45 were administered intraperitoneally to six-week-old mice (C57BL/6J, male) (5 mice/group). After 96 hours, blood was collected under inhalation anesthesia (isoflurane), and the mice were exsanguinated. Then, the activities of aspartate transaminase (AST) and alanine transaminase (ALT) in serum were measured using an automated analyzer (FUJI DRI-CHEM 4000V manufactured by FUJIFILM).

[1] = 5 mice/group, serum after 96 hours, Means ± SD

Substance | ALT [1] [IU/L] | AST [1] [IU/L] | increase in ALT and AST (after 96 hours, versus saline) | Remarks (death of mice) (5 mice/group, 96 hours)
5′-d(^LG^T^T^a^t^g^c^c^a^c^c^^LC^T^^LA)-3′ (antisense GTTATGCCACCCTA; sugars from the 5' end l[BANA][BANA]ddddddddl[BANA]l, all phosphorothioate, methylation of C not given here) [(28), T: BANA-T3] | 36.8 ± 9.5 | 223.2 ± 102.6 | almost no increase in ALT and AST | 
5′-d(^LG^^LT^^LT^t^g^c^c^a^c^c^^LC^^LT^^LA)-3′ (antisense GTTATGCCACCCTA; sugars from the 5' end l3 d8 l3, all phosphorothioate, methylation of C not given here) [(29), reference compound] |  |  |  | all of the five mice died; also recorded: All 5 died
